Blank lines part the entries; values can stand above or below the compound they belong to.
Key:
[1] = physchem
Description: Dissociation constant, pKa of the compound

[2] = Half life in Sprague-Dawley rat at 1 mg/kg, iv; type: ADME, organism-based; parameters: dose 1 mg/kg, route intravenous; conditions: in vivo
[3] = Oral bioavailability in Sprague-Dawley rat at 5 mg/kg; type: ADME, organism-based; conditions: in vivo
[4] = Volume of distribution at steady state in Sprague-Dawley rat at 1 mg/kg, iv; type: ADME, organism-based; parameters: dose 1 mg/kg, route intravenous; conditions: in vivo, read-out: Vdss
[5] = Plasma clearance in Sprague-Dawley rat at 1 mg/kg, iv; type: ADME, organism-based; parameters: dose 1 mg/kg, route intravenous
[6] = molecular target: Metabotropic glutamate receptor 5 (Homo sapiens, UniProt P41594); assay: Antagonist activity at mGlu5 receptor; type: functional
[7] = Drug metabolism in rat liver microsomes at 10 uM; type: ADME, Microsome; conditions: read-out: Drug metabolism
[8] = Intrinsic clearance in Wistar rat; type: ADME, organism-based; conditions: in vivo
[9] = Volume of distribution at steady state in Wistar rat; type: ADME, organism-based; conditions: in vivo, read-out: Vdss
[10] = in vivo; conditions: Wistar, rat
[11] = in vivo; conditions: Wistar, rat, po
Description: Oral bioavailability in Wistar rat

Chain of Metabotropic glutamate receptor 5 (P41594 whole entry): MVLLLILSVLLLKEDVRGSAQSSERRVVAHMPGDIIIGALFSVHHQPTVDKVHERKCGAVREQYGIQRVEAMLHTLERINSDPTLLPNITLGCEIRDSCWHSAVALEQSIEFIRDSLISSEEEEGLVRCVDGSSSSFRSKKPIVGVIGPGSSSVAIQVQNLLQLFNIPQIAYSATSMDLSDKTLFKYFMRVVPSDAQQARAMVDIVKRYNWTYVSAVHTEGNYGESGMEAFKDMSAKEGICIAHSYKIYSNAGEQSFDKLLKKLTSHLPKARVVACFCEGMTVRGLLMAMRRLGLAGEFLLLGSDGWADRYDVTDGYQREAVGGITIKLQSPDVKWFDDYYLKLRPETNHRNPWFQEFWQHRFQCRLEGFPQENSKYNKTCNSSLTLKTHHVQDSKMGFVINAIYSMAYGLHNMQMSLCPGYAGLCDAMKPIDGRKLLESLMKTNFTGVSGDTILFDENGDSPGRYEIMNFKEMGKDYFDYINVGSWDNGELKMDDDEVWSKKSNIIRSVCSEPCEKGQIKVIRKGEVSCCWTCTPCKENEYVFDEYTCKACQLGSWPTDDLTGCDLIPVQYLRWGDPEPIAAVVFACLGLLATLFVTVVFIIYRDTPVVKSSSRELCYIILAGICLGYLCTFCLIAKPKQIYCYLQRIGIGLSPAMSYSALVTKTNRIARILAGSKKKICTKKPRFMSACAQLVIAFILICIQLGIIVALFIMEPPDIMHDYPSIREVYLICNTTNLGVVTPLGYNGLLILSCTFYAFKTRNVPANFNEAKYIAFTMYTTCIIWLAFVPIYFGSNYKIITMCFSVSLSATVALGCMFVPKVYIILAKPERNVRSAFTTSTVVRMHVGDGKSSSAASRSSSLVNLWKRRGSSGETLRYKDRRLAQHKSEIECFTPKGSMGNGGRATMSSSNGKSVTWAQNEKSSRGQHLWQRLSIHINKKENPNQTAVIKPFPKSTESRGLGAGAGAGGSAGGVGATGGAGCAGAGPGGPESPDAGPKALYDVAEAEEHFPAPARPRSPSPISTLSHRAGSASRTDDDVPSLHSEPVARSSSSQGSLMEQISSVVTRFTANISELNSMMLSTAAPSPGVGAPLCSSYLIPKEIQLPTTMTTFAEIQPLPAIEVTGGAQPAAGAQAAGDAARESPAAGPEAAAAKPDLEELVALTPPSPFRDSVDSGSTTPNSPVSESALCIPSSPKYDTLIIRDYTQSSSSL

Compound: c1cocn1 [OXAZOLE]
pKa [1]: 0.8

Compound: c1cnsc1 [ISOTHIAZOLE]
pKa [1]: -0.51

Compound: c1ccnnc1 [PYRIDAZINE]
pKa [1]: 2.3

Compound: Cc1cc(NC(=O)c2nc(C)sc2Nc2cncnc2)ccn1
Ki [6]: 81 nM

Compound: Cc1cc(NC(=O)c2nc(C)sc2Nc2cccnc2)ccn1
Ki [6]: 44 nM

Compound: Cc1nc(C(=O)Nc2ccc(F)cn2)c(Nc2cncnc2)s1
Ki [6]: 31 nM

Compound: C1CNC1 [AZETIDINE]
pKa [1]: 10.7

Compound: c1cnccn1 [PYRAZINE]
pKa [1]: 0.4

Compound: Cc1nc(C(=O)Nc2cccc(CO)n2)c(Nc2cccnc2)s1
Ki [6]: 67 nM

Compound: Cc1nc(C(=O)Nc2ccc(O)c(C)n2)c(Nc2cccnc2)s1
Ki [6]: 111 nM

Compound: Cc1cccc(NC(=O)c2nc(C)sc2Nc2cccnc2)n1
Ki [6]: 9 nM

Further lines, results first:

half-life [2]: 1.67 h | bioavailability [3]: 73% | Vd [4]: 0.34 L/kg | clearance [5]: 2.79 mL/min/kg
Compound: O=C(Nc1nc(-c2ccc(F)c(C(F)(F)F)c2)c(F)s1)c1cnc(N2CCC(C(=O)O)CC2)c(Cl)c1

half-life [2]: 1.09 h | bioavailability [3]: 73.5% | Vd [4]: 0.22 L/kg | clearance [5]: 1.49 mL/min/kg
Compound: O=C(Nc1nc(-c2ccc(F)c(C(F)(F)F)c2)ns1)c1cnc(N2CCC(C(=O)O)CC2)c(Cl)c1

pKa [1]: 10.9
Compound: C1CCCNCC1 [AZEPANE]

metabolised at 10 µM [7]: 7%
Compound: Cc1cn([C@H](C)C2CC2)c(=O)c(Nc2c(Cl)cc(OC(F)F)cc2Cl)n1

metabolised at 10 µM [7]: 1%
Compound: C[C@H](C1CC1)n1cc(C#N)nc(Nc2c(Cl)cc(OC(F)F)cc2Cl)c1=O

metabolised at 10 µM [7]: 20%
Compound: C[C@@H](C1CC1)n1cc(Cl)nc(Nc2c(Cl)cc(OC(F)F)cc2Cl)c1=O

CLint scaled [8]: 50 mL/min/kg | Vd [9]: 3.5 L/kg | half-life [10]: 1.1 h
Compound: CC(C)N1CCC(Oc2ccc3[nH]c(C(=O)N4CCOCC4)cc3c2)CC1

metabolised at 10 µM [7]: 4%
Compound: C[C@@H](C1CC1)n1cc(Br)nc(Nc2c(Cl)cc(OC(F)F)cc2Cl)c1=O

half-life [2]: 1.34 h | bioavailability [3]: 66.8% | Vd [4]: 0.83 L/kg | clearance [5]: 6.89 mL/min/kg
Compound: O=C(Nc1nc(-c2ccc(F)c(C(F)(F)F)c2)cs1)c1cnc(N2CCC(C(=O)O)CC2)c(Cl)c1

pKa [1]: 2.52
Compound: c1cn[nH]c1 [PYRAZOLE]

Ki [6]: 13 nM
Compound: Cc1nc(C(=O)Nc2ccc(F)cn2)c(Nc2cccnc2)s1

CLint scaled [8]: 18 mL/min/kg | Vd [9]: 6 L/kg | bioavailability [11]: 100%
Compound: CC(C)N1CCC(Oc2ccc3[nH]c(C(=O)N4CCC(F)(F)CC4)cc3c2)CC1

From ChEMBL document CHEMBL2169779, “Mitigating heterocycle metabolism in drug discovery” (J Med Chem, 2012)
